The values below are quoted from earlier work in US12478679B2, “Pharmaceutical carrier for active substances and a pharmaceutical composition containing said carrier” (BIOTTS S A, priority 2019, dated 2025).

Molecules are shown by their SMILES. Read-outs that look alike come from different tables or passages of the source.

A word on the ED50: it is the dose at which the effect has come halfway, by size or by number of responders.

The conditions of data set [1]: rats.
The conditions of data set [2]: mice.

As for `COc1cc(/C=C/C(=O)CC(=O)/C=C/c2ccc(O)c(OC)c2)ccc1O` [curcumin], the “ED50, average effective dose in the carrageenan test” value in data set [1] was 48 mg/kg; in data set [2] (first series) it was 100.2 mg/kg. Also, the 50% effective dose (ED50) in data set [2] (series of turmeric extracts and curcumin alone) is 8.7 mg/kg.
